# Measurements published in patent US9937179B2, “Combined treatment for cancer resistant to an epidermal growth factor receptor kinase inhibitor” (Pre Clinical Oncology Services Ltd., priority 2014, dated 2018).
# “Also recorded” adds a separate entry of the source.
# What was measured:
# [1] = tested on: HCC827 subcutaneous xenograft; settings: s.c. HCC827 tumours, n=5/group, Erlotinib 25 mg/kg po QD
# Experimental: (§1) Tumour measurements and body weights were taken 3 times weekly and treatment initiated when the tumours reached a mean volume of ˜200 mm^3 (n=5 per group).
# (§2) Mice were anaesthetised and transported to the SARRP where CBCT (cone beam computed tomography) images were acquired. Using the MuriSlice software the isocenter of the tumour was identified and aligned with the central axis of the beam. […] A tolerability was performed initially to evaluate 3 Gy/day×5 days for 2 week.
# [2] = tested on: HCC827-ER1 subcutaneous xenograft; settings: s.c. HCC827-ER1 tumors, n=5/group
# Experimental: as §1, §2
smiles,measurement,setting,value
"C[C@@H](Oc1cc(-c2cnn(C3CCNCC3)c2)cnc1N)c1c(Cl)ccc(F)c1Cl [Crizotinib, 3-[(1R)-1-(2,6-dichloro-3-fluorophenyl)ethoxy]-5-(1-piperidin-4-ylpyrazol-4-yl)pyridin-2-amine]","effect on tumor volume, drug alone",[1],no effect
same,tumor growth inhibition compared with vehicle/control,"[2]; drug alone, p<0.001, Erlotinib 25 mg/kg po QD",~60%
same,"tumor regression, drug combined with irradiation",[2],tumour regression was restored; also recorded: tumor regression was restored
"C#Cc1cccc(Nc2ncnc3cc(OCCOC)c(OCCOC)cc23)c1 [Erlotinib, N-(3-ethynylphenyl)-6,7-bis(2-methoxyethoxy) quinazolin-4-amine]","tumor regression, drug alone",[2]; drug alone,no tumour regression; also recorded: no tumor regression
same,"tumor regression, drug combined with irradiation",[2],tumour regression was restored; also recorded: tumor regression was restored
